Measured values published in patent publication US10940201B2, “Nucleic acid derivative having immunostimulatory activity” (Shionogi & Co., Ltd., priority 2015, dated 2021).
In the oligonucleotide strings, read from the 5' end, every base follows the letter of its sugar. An asterisk marks phosphorothioate; unmarked linkages are phosphodiester. Other units and linkages are bracketed, terminal groups are in braces. A string of capitals states the bases alone. d = 2'-deoxy (DNA)

Legend:
[1] = target: T1, human TLR9 (Homo sapiens, UniProt Q9NR96); experiment: Reporter assay with HEK-Blue hTLR9 cells (TLR9 agonist activity); assay type: cell-based; conditions: Table 30; CpG oligonucleotides except for ODN2006 and their double strands; read-out: EC50
T1 construct: host or cells: HEK-Blue hTLR9 cells (HEK293)
T1 sequence (Q9NR96 26-1032): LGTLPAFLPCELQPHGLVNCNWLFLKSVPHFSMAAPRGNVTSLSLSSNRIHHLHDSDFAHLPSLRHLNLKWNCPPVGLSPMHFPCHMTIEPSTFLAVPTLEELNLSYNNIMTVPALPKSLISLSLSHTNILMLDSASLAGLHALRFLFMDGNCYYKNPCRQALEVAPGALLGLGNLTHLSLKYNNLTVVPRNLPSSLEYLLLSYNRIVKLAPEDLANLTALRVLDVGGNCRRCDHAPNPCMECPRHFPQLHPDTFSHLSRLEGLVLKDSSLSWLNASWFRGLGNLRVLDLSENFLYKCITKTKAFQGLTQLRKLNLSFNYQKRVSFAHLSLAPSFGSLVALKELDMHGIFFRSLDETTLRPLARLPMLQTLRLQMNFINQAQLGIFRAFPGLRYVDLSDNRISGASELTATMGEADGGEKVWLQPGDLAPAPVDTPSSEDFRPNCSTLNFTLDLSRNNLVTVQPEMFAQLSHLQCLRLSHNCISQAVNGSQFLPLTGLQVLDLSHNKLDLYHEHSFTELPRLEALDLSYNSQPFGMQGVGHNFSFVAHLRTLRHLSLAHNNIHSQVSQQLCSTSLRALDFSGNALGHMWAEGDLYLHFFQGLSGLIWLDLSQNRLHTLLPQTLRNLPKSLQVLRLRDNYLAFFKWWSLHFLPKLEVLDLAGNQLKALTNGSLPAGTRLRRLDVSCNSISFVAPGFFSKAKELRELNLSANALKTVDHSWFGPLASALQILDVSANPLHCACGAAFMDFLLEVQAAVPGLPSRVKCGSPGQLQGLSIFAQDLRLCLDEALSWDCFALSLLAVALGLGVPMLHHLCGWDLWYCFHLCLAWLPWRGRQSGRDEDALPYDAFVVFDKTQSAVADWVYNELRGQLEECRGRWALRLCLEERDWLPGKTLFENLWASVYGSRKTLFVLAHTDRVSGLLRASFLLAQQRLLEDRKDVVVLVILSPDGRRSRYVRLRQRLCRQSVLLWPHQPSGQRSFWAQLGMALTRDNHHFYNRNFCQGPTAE
Protocol: HEK-Blue™ hTLR9 cells (Invivogen) used for the reporter assay were made by introducing human TLR9 gene and a reporter gene that secretory alkaline phosphatase gene bound to NF-kB-AP-1 binding region sequence in HEK293 cells, and are the cells stably expressing the both genes. 3.6×10^4 of the cells suspended in HEK-Blue™ Detection ([…]) comprising substrates against the alkaline phosphatase were seeded on the 96 well plate, and 3 nM to 30 μM of a lipid binding double-stranded oligonucleotide of the present invention, the known CpG oligonucleotides (ODN2006, SEQ-49), or adjuvant based on design in Patent Document 1, i.e., ssCpG ODN introducing a lipid ligand (SEQ-142, 143 or 144) was added. After culturing in a 37° C., 5% CO2 incubator for 16 hours, absorbency at 620 nm was measured using the culture supernatant developed a color. The result value was analyzed with TIBCO Spotfire software, and calculated the 50% effective concentration (EC50) of each oligonucleotide.

[2] = tested on: TRP2-specific CTL; experiment: CTL inducibility of TRP2 peptide vaccine with adjuvant (tetramer staining); assay type: in vivo, C57BL/6JJcl mice
Protocol: (§1) C57BL/6JJcl mice (6 to 8 weeks old) were purchased from CLEA Japan, Inc.
(§2) an adjuvant of the present invention or the well-known CpG ODN
The specific immunity was induced by vaccinating a mouse twice at 7 days intervals. Each vaccine was that 100 μg of TRP2 peptide, and 1.57 or 4.71 nmol of an adjuvant of the present invention or well-known CpG ODN, were dissolved in 1×PBS. 100 μL of the vaccine was administered subcutaneous injection on the flank of a mouse.
100 μL of the emulsion vaccine was administered subcutaneous injection on the flank of a mouse twice at 7 days intervals.
(§3) On 7 days after second vaccination, the blood was collected, red blood cells was removed by BD Pharm Lyse (BD pharmingen), and the white blood cells were suspended in FACS buffer (1% fetal bovine serum, 2 mM PBS with EDTA). Anti-mouse CD16/32 monoclonal antibody (BioXcell) was added thereto, and Fc receptor blocking was carried out at 4° C. for 30 minutes. […] Then, staining was carried out with DAPI (Invitrogen) and the cells were washed twice with FACS buffer. It was resuspended in FACS buffer and analyzed by FACS verse Flow Cytometer (BD bioscience) and FAC Suite software (BD bioscience). For analysis, after DAPI negative fraction was gated, white blood cells fraction were provided using forward and side-way scattering as indicators. In the white blood cells fraction, both positive cells of Alexa 647-CD8 and PE-H-2Kb Tetramer were defined as CTLs. CTL ratio in white blood cells was used for evaluation.
After calculation of the average CTL inducibility of each group per experiment, the ratio against average value of CTL inducibility of ssCpG ODN, ODN1826 (SEQ-1) or ODN2006 (SEQ-49) as a control was calculated.
In the case of an adjuvant comprising ODN1826 (Average of CTL inducibility of the adjuvant group)/(Average of CTL inducibility of the ODN1826 group)=the ratio against average value In the case of an adjuvant comprising ODN2006 (Average of CTL inducibility of the adjuvant group)/(Average of CTL inducibility of the ODN2006 group)=the ratio against average value
CTL inducibility of each adjuvant was shown when CTL inducibility of ssCpG ODN was taken as 1, so the bigger value means the higher CTL inducibility.

[3] = tested on: antigen-specific CTL (OVA peptide); experiment: CTL inducibility of OVA peptide vaccine with adjuvant (tetramer staining); assay type: in vivo, C57BL/6JJcl mice; conditions: Table 32, 1.57 nmol/head, ODN1826 (SEQ-1) group = 1
Protocol: as §1, §2
The specific immunity was induced by vaccinating a mouse twice at 7 days intervals. […] 100 μL of the vaccine was administered subcutaneous injection on the flank of a mouse.
as §3, with “CTL ratio in white blood cells was used for evaluation.” left out
After calculation of the average CTL inducibility of each group per experiment, the ratio against average value of CTL inducibility of ssCpG ODN, ODN1826 (SEQ-1) or ODN2006 (SEQ-49) as a control was calculated. […]

[4] = tested on: B16F10 cells; experiment: Anti-tumor effect of TRP2 peptide vaccine using an adjuvant; assay type: in vivo, mouse
Protocol: After immunization by TRP2 peptide vaccine, B16F10 cells (ATTC) which is mouse melanoma expressing TRP2 protein was subcutaneously transplanted to evaluate anti-tumor effect. […] The major and minor axes of the engrafted tumor were measured every 2 to 3 days, and the tumor volume was calculated by the formula: (major axis×minor axis^2)/2 Calculation method for indicators of anti-tumor effect For the adjuvant comprising ODN1826 100·(average tumor volume of adjuvant group)/(average tumor volume of ODN1826 group) For the adjuvant comprising ODN2006 100·(average tumor volume of adjuvant group)/(average tumor volume of ODN2006 group)

[5] = tested on: tumor growth; experiment: Anti-tumor effect (tumor inhibition rate) of OVA peptide vaccine with adjuvant; assay type: in vivo, mouse; conditions: Table 32, 1.57 nmol/head, compared to ODN1826 (SEQ-1)
Protocol: After immunization by TRP2 peptide vaccine, B16F10 cells (ATTC) which is mouse melanoma expressing TRP2 protein was subcutaneously transplanted to evaluate anti-tumor effect. In a similar method to Example 3 A), on the next day that tetramer-positive ratio in peripheral blood of mouse vaccinated twice every 7 days was observed, B16F10 cells (1×10^5 cells/mouse) were subcutaneously transplanted in the right shoulder. The major and minor axes of the engrafted tumor were measured every 2 to 3 days, and the tumor volume was calculated by the formula: (major axis×minor axis^2)/2 Calculation method for indicators of anti-tumor effect For the adjuvant comprising ODN1826 100·(average tumor volume of adjuvant group)/(average tumor volume of ODN1826 group) For the adjuvant comprising ODN2006 100·(average tumor volume of adjuvant group)/(average tumor volume of ODN2006 group)
The compound with bigger value has the stronger anti-tumor activity.
The activity of an adjuvant of the present invention having a lipid comprising two acyl chains comprising 10 to 20 carbon atoms as a ligand was examined with OVA peptide.

[6] = tested on: TRP2-specific CTL; experiment: CTL inducibility of TRP2 peptide vaccine with adjuvant (tetramer staining); assay type: in vivo, C57BL/6JJcl mice; remark: listed apart in the source
[7] = tested on: recombinant PCRV protein; experiment: Inducibility of antibody production in immunization by PCRV antigen vaccine (antibody titer); assay type: in vivo; conditions: A/J mice, recombinant PCRV protein with adjuvant, intradermal; antiserum Day 33; FIG. 15
Protocol: Perv nucleotide sequence (SEQ ID NO: 48) derived from Pseudomonas aeruginosa Strain PAO1 was cloned at NdeI-XhoI site in pET21a vector, and Escherichia coli strain BL21 (DE3) was transformed with the prepared plasmid. Strain perV-BL21 (DE3) was cultured in 500 mL of LB/Ampicillin liquid medium at 37° C., and 200 μL of 0.1 M IPTG was added when OD600 became 0.5 to induce expression of recombinant PCRV protein. After culturing at 16° C. for 18 hours, bacteria was separated by a centrifuge, and 15 ml of Buffer A (50 mM Tris-HCl (pH8.0), 0.2M NaCl) comprising 0.5% lysozyme (SIGMA Corporation) was added. After putting at 4° C. for 30 minutes, ultrasonic treatment was carried out. After centrifugation at 12,000 rpm for 10 minutes, soluble fraction was obtained. 1 mL of Ni-NTA agarose gel (QIAGEN) was added to Polyprep column (BIO-RAD Laboratories, Inc) and equilibrated with 10 mL of Buffer A. Soluble fraction was added to the column and passed. […] The resulting recombinant PCRV protein was measured the concentration with BCA assay kit (PIERCE) and kept at −80° C. […]
Antibody titer was measured as blow. […] 20 μL/well of 0.5 N sulfuric acid (Nacalai) was added, and absorbance at 450 nm was measured with a plate reader. The dilution ratio when absorbance at 450 nm is 1.0 was calculated and put as an antibody titer.

[8] = Table 65, 4.71 nmol, respective ssCpG ODN (ODN2216, ODN684, D-LS01) group = 1
[9] = Table 56, 4.71 nmol, SEQ-256 (D35-CpG) group = 1

Substance: SEQ-253 (sense dA*dT*dC*dG*dA*dC*dT*dC*dT*dC*dG*dA*dG*dC*dG*dT*dT*dC*dT*dC)
- EC50 [1]: 2.87 µM

Substance: ODN1826 [SEQ-1]
- Ratio of average value of antigen-specific CTL ([2]; Table 31, 1.57 nmol/head, ODN1826 (SEQ-1) group = 1): 1.00
- Ratio of average value of antigen-specific CTL ([2]; Table 33, 1.57 nmol/head, ODN1826 (SEQ-1) group = 1): 1.00
- Ratio of average value of antigen-specific CTL ([2]; Table 34, 1.57 nmol/head, ODN1826 (SEQ-1) group = 1): 1.00
- Ratio of average value of antigen-specific CTL ([2]; Table 35, 1.57 nmol/head, ODN1826 (SEQ-1) group = 1): 1.00
- Ratio of average value of antigen-specific CTL ([2]; Table 36, 1.57 nmol/head (Montanide 100 μL), ODN1826 (SEQ-1) group = 1): 1.00
- Ratio of average value of antigen-specific CTL ([2]; Table 37, 1.57 nmol/head, ODN1826 (SEQ-1) group = 1): 1.00
- CTL inducibility (in words) ([2]; adjuvants comprising ODN1826): TRP2-specific CTL was induced
- Ratio of average value of antigen-specific CTL [3]: 1.00
- effect of inhibition on tumor progression of B16F10 cells (in words) [4]: little effect of inhibition on tumor progression of B16F10 cells
- Tumor inhibition rate (Day 14 after transplantation) ([4]; Table 37, 1.57 nmol/head, compared to ODN1826 (SEQ-1)): 0.00%
- Tumor inhibition rate (Day 14 after transplantation) [5]: 0.00%

Substance: SEQ-342 (dT*dC*dG*dA*dC*dG*dT*dT*dC*dG*dT*dC*dG*dT*dT*dC*dG*dT*dC*dG*dT*dT*dC)
- EC50 [1]: 2.34 µM
- Ratio of average value of antigen-specific CTL [6, 8]: 1.00

Substance: SEQ-256 (sense dG*dGdTdGdCdAdTdCdGdAdTdGdCdAdGdGdGdG*dG*dG)
- EC50 [1]: 3420 µM
- Ratio of average value of antigen-specific CTL [6, 9]: 1.00

Substance: SEQ-354 (dT*dC*dG*dT*dC*dG*dT*dC*dG*dT*dT*dC*dG*dA*dA*dC*dG*dA*dC*dG*dT*dT*dG*dA*dT)
- EC50 [1]: 16900 µM
- Ratio of average value of antigen-specific CTL ([2]; Table 66, 4.71 nmol, SEQ-354 (ODN M362) group = 1): 1.00

Substance: PCRV protein: recombinant PCRV protein C-end HIS derived from Pseudomonas aeruginosa Strain PAO1, antigen given without adjuvant as control
- antibody titer (dilution ratio when absorbance at 450 nm is 1.0) [7]: 1.3×10^5

Substance: SEQ-351 (dT*dC*dG*dT*dC*dG*dT*dT*dT*dT*dC*dG*dG*dC*dG*dC*dG*dC*dG*dC*dC*dG)
- EC50 [1]: 11.6 µM

Substance: SEQ-258 (sense GGTGCATCGATGCAGGGGGG; antisense CCCCCCTGCATCGATG; phosphorothioate, 5' L4-18 lipid, chemistry not fully specified)
- EC50 [1]: 16.3 µM
- Ratio of average value of antigen-specific CTL [6, 9]: 2.46

Substance: SEQ-345 (dT*dC*dG*dC*dG*dA*dC*dG*dT*dT*dC*dG*dC*dC*dC*dG*dA*dC*dG*dT*dT*dC*dG*dG*dT*dA)
- EC50 [1]: 6.28 µM
- Ratio of average value of antigen-specific CTL [6, 8]: 1.00
